One molecule from patent publication US7943382B2, “Method for inspecting fat-soluble vitamin and/or fat-soluble food factor by saliva analysis” (Mitsubishi Chemical Medience Corporation, priority 2004, dated 2011) can be followed below.

Structures are written as SMILES.

Data set [1] is described as follows: Transition of the CoQ10 level in parotid saliva depending on ingestion states of Supplement N. Type of data set: in vivo, human. How it is done: For the ingestion test of CoQ10, commercial supplement S containing CoQ10 of 50 mg per one tablet and commercial supplement N containing 30 mg per one tablet were used. 10 volunteers in the group S and 10 volunteers in the group N were made to ingest orally the supplement s and the supplement N respectively. For ingestion of supplement S, each volunteer was made to ingest orally two tablets at 9:00 every morning continuously for a week, and for the next week, made to ingest orally double amount, four tablets at 9:00 every morning continuously, and then stopped from ingestion for two weeks. For ingestion of supplement N, each volunteer was made to ingest orally three tablets at 9:00 every morning continuously for a week, and for the next week, made to ingest orally double amount, six tablets at 9:00 every morning continuously, and then stopped from ingestion for two weeks. As specimens in both the groups S and N, parotid saliva and heparinized plasma were collected from PM 4:00 to 5:00, total four times, that is, before and one week after ingestion, at double dose ingestion, and two weeks after discontinuation of ingestion. The volunteer had the mouth rinsed with water prior to collection, kept quiet on a chair for 5 minutes, while the volunteer accumulated saliva in the oral cavity and discharged to initialize the oral cavity, followed by collecting parotid saliva. For collection of parotid saliva, the Saliva-sampler is inserted between the teeth and the cheek near the open of the parotid gland, the volunteer sat quiet on a chair, during which saliva was collected, while the volunteer swallowed saliva, which was secreted from the sublingual gland and the submandibular gland and accumulated in the mandible, to prevent contamination with the saliva from the sublingual gland and the submandibular gland. For analysis of CoQ10 in saliva collected from the parotid gland, the Saliva-sampler with absorbed saliva was transferred to the peculiar tube holding 1 ml of 50% ethanol, to which […] of ethanol was added to have a final concentration of […]. […]

Data set [2] is described as follows: Correlation between the blood level and the content in saliva (CoQ10 ingestion tests part 1 and 2). Type of data set: in vivo, human. How it is done: 11 volunteers were made to ingest orally two tablets (CoQ10 content: 100 mg in two tablets) of Q10AA Multi (trade name, Shiseido Co., Ltd., hereinafter may be referred to “Supplement S”), a commercial CoQ10 supplement, at 7:00 every morning continuously for a week. Meanwhile, the contents of the fat-soluble vitamins and fat-soluble food factors in the Supplement S are 50 mg/tablet as for CoQ10, and 16.4 mg/tablet as for α-tocopherol. Then parotid saliva, directly collected saliva and heparinized plasma were collected from PM 4:00 to 5:00, three times, before and one week after ingestion and two weeks after discontinuation of ingestion. The volunteer had the mouth rinsed with water, and kept quiet on a chair for 5 minutes, while the volunteer accumulated saliva in the oral cavity and discharge to initialize the oral cavity, followed by collecting saliva. Approximately 1 ml of saliva accumulated in the oral cavity was collected as directly collected saliva. In order to collect saliva from the parotid gland, an absorbent cotton of 2 g was put beneath the tongue to prevent contamination with saliva from sublingual gland and submandibular gland, while the Saliva-sampler comprising a cotton saliva absorber and an indicator which informed termination of collection by color change was inserted between the teeth and the cheek near the open of the parotid gland. […]

Turning to `COC1=C(OC)C(=O)C(C/C=C(\C)CC/C=C(\C)CC/C=C(\C)CC/C=C(\C)CC/C=C(\C)CC/C=C(\C)CC/C=C(\C)CC/C=C(\C)CC/C=C(\C)CCC=C(C)C)=C(C)C1=O` [CoQ10, Ubidecarenone], the “transition of the CoQ10 level in parotid saliva” value was “increased by ingestion of the supplement with CoQ10, furthermore increased by more ingestion, and decreased after discontinuation of ingestion” in data set [1] (3 tablets/day one week, 6 tablets/day next week, then two weeks discontinuation, other 7 volunteers, FIG. 7); “small increase” in data set [1] (volunteer N9, ingestion approximately three hours after breakfast); “hardly increased” in data set [1] (volunteers N1 and N5 (no or often lacking breakfast), increased amount of the supplement). Also, in data set [2] (112 specimens of examples 2 and 3, FIG. 5), the “correlation between concentrations in parotid saliva and plasma” value is listed as “good correlation”. In addition, the “correlation between levels in directly collected saliva and plasma” value in data set [2] (FIG. 6) is “weak but recognizable correlation”.
